Like-named read-outs stand apart in the source and are kept apart here.
Assays:
Format in all cases: biochemical
[1] = target: T1, KAT8 (Homo sapiens, UniProt Q9H7Z6); assay: Radioactive KAT8 inhibition assay
T1 construct: using the previously purified KAT8 (173–458, 5 nM); 6xHis tag with TEV protease cleavage site (N, cleaved yes); made in house; host or cells: E. coli BL21(DE3)
T1 sequence (Q9H7Z6 173-458): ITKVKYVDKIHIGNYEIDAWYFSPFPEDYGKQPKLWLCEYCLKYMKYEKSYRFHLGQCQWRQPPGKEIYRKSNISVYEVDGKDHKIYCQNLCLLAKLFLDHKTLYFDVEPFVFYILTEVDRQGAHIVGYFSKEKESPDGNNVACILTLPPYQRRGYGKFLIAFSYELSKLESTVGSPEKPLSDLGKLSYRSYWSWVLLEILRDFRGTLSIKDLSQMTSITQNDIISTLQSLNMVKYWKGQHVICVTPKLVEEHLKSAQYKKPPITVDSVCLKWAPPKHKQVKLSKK
Description: Purified KAT8 was incubated with the relevant inhibitor (1% DMSO final) in a 2-fold serial dilution starting at 200 μM for 20 min at rt. Then, [^3H]Ac-CoA and biotinylated peptide were added to a total assay volume of 50 μL and the reaction mixture was incubated at rt for 4 h. The reaction was stopped, and the mixture was transferred to a 96-well streptavidin scintillant coated FlashPlate (Perkin Elmer) and incubated for 60 min at rt. The FlashPlate was washed with 0.1% Tween-20, and the liquid scintillation counting (MicroBeta Microplate Counter, Perkin Elmer) was employed to measure the radioactive signal. Experiments were performed in biological triplicates. Signal reduction compared to control was plotted (as inhibition percentage) as a function of compound concentration and fitted by nonlinear regression (GraphPad Prism 8.0) finally yielding the IC50 values.

[2] = target: T2, KAT3B (Homo sapiens, UniProt Q09472); assay: HotSpot KAT assay, KAT3B; conditions: read-out: IC50 KAT3B (1 nM); enzyme 1 nM; NI = no inhibition at 200 μM; mean ± SD of three independent experiments
T2 construct: KAT3B (aa 1284–1672, 1 nM); purchased Reaction Biology Corporation
T2 sequence (Q09472 1284-1672): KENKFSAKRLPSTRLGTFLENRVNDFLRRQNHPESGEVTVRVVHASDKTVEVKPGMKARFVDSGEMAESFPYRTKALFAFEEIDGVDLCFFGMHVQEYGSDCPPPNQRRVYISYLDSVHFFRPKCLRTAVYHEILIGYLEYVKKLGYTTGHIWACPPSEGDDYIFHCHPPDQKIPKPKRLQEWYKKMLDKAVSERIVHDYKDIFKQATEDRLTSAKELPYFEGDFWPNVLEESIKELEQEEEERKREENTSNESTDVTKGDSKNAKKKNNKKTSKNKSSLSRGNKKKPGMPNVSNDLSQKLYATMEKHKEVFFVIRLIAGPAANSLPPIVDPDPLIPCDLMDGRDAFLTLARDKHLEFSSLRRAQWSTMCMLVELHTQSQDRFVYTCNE
Description: The effects of the compounds on other KATs were determined using the HotSpot KAT assay (Reaction Biology Corporation, Malvern, PA, USA) according to the supplier’s procedure. […] Histone peptide acetylation was assessed by liquid scintillation counting using a Tri-Carb 2800TR Liquid Scintillation Analyzer (Perkin Elmer). Experiments were performed in biological triplicates. Signal reduction compared to control was plotted (as inhibition percentage) as a function of compound concentration. In cases in which an IC50 was calculated, the values were fitted by nonlinear regression (GraphPad Prism 8.0).

[3] = target: T3, KAT2B (Homo sapiens, UniProt Q92831); assay: HotSpot KAT assay, KAT2B; conditions: enzyme 25 nM; NI = no inhibition at 200 μM; mean ± SD of three independent experiments
T3 construct: KAT2B (aa 492–658, 25 nM); purchased Reaction Biology Corporation
T3 sequence (Q92831 492-658): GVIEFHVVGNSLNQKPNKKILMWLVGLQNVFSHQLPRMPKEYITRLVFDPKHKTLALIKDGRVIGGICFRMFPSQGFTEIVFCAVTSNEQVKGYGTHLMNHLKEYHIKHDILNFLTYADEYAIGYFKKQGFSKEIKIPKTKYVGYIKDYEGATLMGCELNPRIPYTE
Description: (§1) The effects of the compounds on other KATs were determined using the HotSpot KAT assay (Reaction Biology Corporation, Malvern, PA, USA) according to the supplier’s procedure. The recombinant catalytic domains of human KAT2A (aa 323–837, 15 nM), KAT2B (aa 492–658, 25 nM), KAT3B (aa 1284–1672, 1 nM), KAT6A (aa 488–778, 10 nM), KAT6B (aa 657–1069, 10 nM), and full length human KAT5 (25 nM) and KAT7 (25 nM) were used. Each enzyme was incubated with the relevant histone peptide [H3 peptide for KAT2A, KAT2B, KAT3B, KAT6A, and KAT7 (2.5–5 μM, depending on the KAT isoform); H2A peptide for KAT5 (1.25 μM); H4 peptide for KAT6B (2.5 μM)] as a substrate and radio-isotope-labeled [^3H]Acetyl-CoA (0.2–1.5 μM, depending on the KAT isoform) as an acetyl donor in the assay buffer [50 mM Tris–HCl (pH 8.0), 50 mM NaCl, 0.1 mM EDTA, 1 mM DTT, 0.1 mM PMSF, 1% DMSO] for 1 h at 30 °C in the presence or absence of various compounds (1% DMSO final) titrated in a 2-fold serial dilution starting at 200 μM. Histone peptide acetylation was assessed by liquid scintillation counting using a Tri-Carb 2800TR Liquid Scintillation Analyzer (Perkin Elmer). Experiments were performed in biological triplicates. Signal reduction compared to control was plotted (as inhibition percentage) as a function of compound concentration. In cases in which an IC50 was calculated, the values were fitted by nonlinear regression (GraphPad Prism 8.0).

[4] = target: T4, KAT2A (Homo sapiens, UniProt Q92830); assay: HotSpot KAT assay, KAT2A; conditions: control compound; read-out: IC50 KAT2A (15 nM)
T4 construct: human KAT2A (aa 323–837, 15 nM); purchased Reaction Biology Corporation
T4 sequence (Q92830 323-837): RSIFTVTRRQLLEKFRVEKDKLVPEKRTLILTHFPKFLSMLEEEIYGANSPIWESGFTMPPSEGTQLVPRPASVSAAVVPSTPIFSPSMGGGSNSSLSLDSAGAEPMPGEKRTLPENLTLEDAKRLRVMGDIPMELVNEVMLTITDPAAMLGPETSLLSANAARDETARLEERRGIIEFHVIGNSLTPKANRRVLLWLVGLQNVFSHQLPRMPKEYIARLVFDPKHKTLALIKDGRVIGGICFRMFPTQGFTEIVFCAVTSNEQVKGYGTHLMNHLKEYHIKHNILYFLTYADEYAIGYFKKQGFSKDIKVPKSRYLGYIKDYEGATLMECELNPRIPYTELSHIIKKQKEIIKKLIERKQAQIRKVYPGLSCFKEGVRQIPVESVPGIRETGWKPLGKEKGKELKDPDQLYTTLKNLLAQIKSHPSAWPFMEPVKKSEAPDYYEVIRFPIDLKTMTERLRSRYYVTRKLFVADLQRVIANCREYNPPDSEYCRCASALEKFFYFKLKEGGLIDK
Description: as §1

[5] = read-out: IC50 KAT8 (5 nM), enzyme 5 nM, 2-fold serial dilution from 200 μM, NI = no inhibition at 200 μM, mean ± SD of three independent experiments

SMILES | IC50 [1, 5] | IC50 [2] | IC50 [3] | IC50 [1] | IC50 [4]
CC1=NN(c2ccc(C(=O)O)cc2)C(=O)/C1=C\c1cc(C(=O)c2ccccc2Cl)c[nH]1 [Compound 5, (Z)-4-(4-((4-(2-Chlorobenzoyl)-1H-pyrrol-2-yl)methylene)-3-methyl-5-oxo-4,5-dihydro-1H-pyrazol-1-yl)benzoic Acid] | 88.9 ± 12.1 µM | 5.3 ± 0.3 µM | > 200 µM |  | 
CC1=NN(c2ccc(C(=O)O)cc2)C(=O)/C1=C\c1cc(C(=O)c2ccccc2C)c[nH]1 [Compound 13, (Z)-4-(3-Methyl-4-((4-(2-methylbenzoyl)-1H-pyrrol-2-yl)methylene)-5-oxo-4,5-dihydro-1H-pyrazol-1-yl)benzoic Acid] | 95 ± 10.2 µM | 8.9 ± 0.6 µM | > 200 µM |  | 
CC1=NN(c2ccc(C(=O)O)cc2)C(=O)/C1=C\c1cccs1 [Compound 21, (Z)-4-(3-Methyl-5-oxo-4-(thiophen-2-ylmethylene)-4,5-dihydro-1H-pyrazol-1-yl)benzoic Acid] | 20.8 ± 1.2 µM | 26.5 ± 1.7 µM | > 200 µM |  | 
CC1=NN(c2ccc(C(=O)O)cc2)C(=O)/C1=C\c1ccccc1 [Compound 22, (Z)-4-(4-Benzylidene-3-methyl-5-oxo-4,5-dihydro-1H-pyrazol-1-yl)benzoic Acid] | 29.2 ± 1.7 µM | > 200 µM | > 200 µM |  | 
CC1=NN(c2ccc(C(=O)O)cc2)C(=O)/C1=C\c1cc[nH]c1 [Compound 23, (Z)-4-(4-((1H-Pyrrol-3-yl)methylene)-3-methyl-5-oxo-4,5-dihydro-1H-pyrazol-1-yl)benzoic Acid] | 33 ± 2 µM | > 200 µM | > 200 µM |  | 
CC1=NN(c2ccc(C(=O)O)cc2)C(=O)/C1=C\c1ccn[nH]1 [Compound 24, (Z)-4-(4-((1H-Pyrazol-5-yl)methylene)-3-methyl-5-oxo-4,5-dihydro-1H-pyrazol-1-yl)benzoic Acid] | 44.1 ± 3 µM | > 200 µM | > 200 µM |  | 
CC1=NN(c2ccc(C(=O)O)cc2)C(=O)/C1=C\c1c[nH]cn1 [Compound 25, (Z)-4-(4-((1H-Imidazol-4-yl)methylene)-3-methyl-5-oxo-4,5-dihydro-1H-pyrazol-1-yl)benzoic Acid] | 31.8 ± 2.1 µM | 29.2 ± 1.7 µM | > 200 µM |  | 
CC1=NN(c2ccc(C(=O)O)cc2)C(=O)/C1=C\c1cc2ccccc2[nH]1 [Compound 26, (Z)-4-(4-((1H-Indol-2-yl)methylene)-3-methyl-5-oxo-4,5-dihydro-1H-pyrazol-1-yl)benzoic Acid] | 20.1 ± 0.9 µM | 1.6 ± 0.08 µM | > 200 µM |  | 
CC1=NN(c2ccc(C(=O)O)cc2)C(=O)/C1=C\c1c[nH]c2ccccc12 [Compound 27, (Z)-4-(4-((1H-Indol-3-yl)methylene)-3-methyl-5-oxo-4,5-dihydro-1H-pyrazol-1-yl)benzoic Acid] | 38.1 ± 2.9 µM | 4.6 ± 0.2 µM | > 200 µM |  | 
CC1=NN(c2ccc(C(=O)O)cc2)C(=O)/C1=C\c1cccn1C [Compound 28, (Z)-4-(3-Methyl-4-((1-methyl-1H-pyrrol-2-yl)methylene)-5-oxo-4,5-dihydro-1H-pyrazol-1-yl)benzoic Acid] | 15.1 ± 1 µM | 20.8 ± 1 µM | > 200 µM |  | 
CC1=NN(c2ccc(C(=O)O)cc2)C(=O)/C1=C\c1cccn1-c1ccccc1 [Compound 29, (Z)-4-(3-Methyl-5-oxo-4-((1-phenyl-1H-pyrrol-2-yl)methylene)-4,5-dihydro-1H-pyrazol-1-yl)benzoic Acid] | 18.6 ± 0.8 µM | 14.6 ± 0.6 µM | > 200 µM |  | 
CC1=NN(c2ccc(C(=O)O)cc2)C(=O)/C1=C(/C)c1ccc[nH]1 [Compound 30, (Z)-4-(4-(1-(1H-Pyrrol-2-yl)ethylidene)-3-methyl-5-oxo-4,5-dihydro-1H-pyrazol-1-yl)benzoic Acid] | 19.4 ± 0.9 µM | > 200 µM | > 200 µM |  | 
Cc1nn(-c2ccc(C(=O)O)cc2)c(O)c1Cc1ccc[nH]1 [Compound 31, 4-(4-((1H-Pyrrol-2-yl)methyl)-5-hydroxy-3-methyl-1H-pyrazol-1-yl)benzoic Acid] | 17.2 ± 1.2 µM | > 200 µM | > 200 µM |  | 
Cc1nn(-c2ccc(C(=O)O)cc2)c(O)c1Cc1ccccc1 [Compound 32, 4-(4-Benzyl-5-hydroxy-3-methyl-1H-pyrazol-1-yl)benzoic Acid] | 26.9 ± 2.3 µM | > 200 µM | > 200 µM |  | 
CC(C)C1=NN(c2ccc(C(=O)O)cc2)C(=O)/C1=C\c1ccc[nH]1 [Compound 33, (Z)-4-(4-((1H-Pyrrol-2-yl)methylene)-3-isopropyl-5-oxo-4,5-dihydro-1H-pyrazol-1-yl)benzoic Acid] | 13.9 ± 0.9 µM | > 200 µM | > 200 µM |  | 
O=C(O)c1ccc(N2N=C(Cc3ccccc3)/C(=C/c3ccc[nH]3)C2=O)cc1 [Compound 35, (Z)-4-(4-((1H-Pyrrol-2-yl)methylene)-3-benzyl-5-oxo-4,5-dihydro-1H-pyrazol-1-yl)benzoic Acid] |  | > 200 µM | > 200 µM | 38.1 ± 3.8 µM | 
CC1=NN(c2cccc(C(=O)O)c2)C(=O)/C1=C\c1ccc[nH]1 [Compound 36, (Z)-3-(4-((1H-Pyrrol-2-yl)methylene)-3-methyl-5-oxo-4,5-dihydro-1H-pyrazol-1-yl)benzoic Acid] | 19.3 ± 1.3 µM | > 200 µM | > 200 µM |  | 
CC1=NN(c2ccc(C(N)=O)cc2)C(=O)/C1=C\c1ccc[nH]1 [Compound 37, (Z)-4-(4-((1H-Pyrrol-2-yl)methylene)-3-methyl-5-oxo-4,5-dihydro-1H-pyrazol-1-yl)benzamide] | 33.2 ± 2.4 µM | > 200 µM | > 200 µM |  | 
CC1=NN(c2ccc(C(=O)N(C)C)cc2)C(=O)/C1=C\c1ccc[nH]1 [Compound 38, (Z)-4-(4-((1H-Pyrrol-2-yl)methylene)-3-methyl-5-oxo-4,5-dihydro-1H-pyrazol-1-yl)-N,N-dimethylbenzamide] | 29.5 ± 1.8 µM | > 200 µM | > 200 µM |  | 
CCCCCCCCCCCCCCCc1cccc(O)c1C(=O)O [I (AA), anacardic acid, reference compound] |  | 22.9 ± 1.3 µM | 39.7 ± 1.1 µM |  | 42.1 µM

— paper PMC10226132, “First-in-Class Selective Inhibitors of the Lysine Acetyltransferase KAT8” (Journal of Medicinal Chemistry, 2023)
